Values of other authors as cited in patent publication US20040258731A1, “Preparation approriate for cartilage tissue formation” (priority 2001, published 2004).

Assays:
articular cartilage [1] = system: articular cartilage
articular cartilage [2] = settings: experimental arthritis model animals, intraarticular administration

In the case of TGF-β, the synovitis (articular cartilage [1]; in vivo) is given as “marked synovitis”.

For “TGF-β1: an isoform of TGF-β (Transforming Growth Factor β)”, the “arthritis-induced loss of proteoglycans in articular cartilage” value (articular cartilage [2]) is listed as “suppresses arthritis-induced loss of proteoglycans in articular cartilage” and the chondrogenesis (articular cartilage [1]; intraarticularly administered) is listed as “promote chondrogenesis”.
